Holding throughout (assay): combination Emax (second highest fraction inhibited in the dose matrix, 72 h); higher = more inhibition; extreme values may be limits of the assay
The test system of assay [1] is EW-1 (Ewing's Sarcoma). A digest of the protocol: (§1)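 After 24 hours at 37°C and 5% CO2 in 1536-well plates, cells in DMEM/F12 or RPMI plus 10% FBS received two-drug dose matrices for 72 hours. Viability came from CellTiter-Glo 2.0 luminescence and was scaled as inhibition, anchored at 0 by vehicle wells and at 1 by blank wells. Combination Emax is taken as the second-highest inhibition in the matrix, and Bliss excess as the observed combination effect less EA + EB − EA·EB, with EA and EB the single-agent effects.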

For assay [2], the system named is SW982 (Other Solid Carcinomas). In short, it runs like this:
as §1

Assay [3] deals with LC-1-sq (Squamous Cell Lung Carcinoma). A digest of the protocol: as §1
The subject of assay [4] is Mo-T (Other Blood Carcinomas). In short, it runs like this:
as §1

As for `Cc1c2c(nn1C)CSCc1cc(n(C)n1)CSc1cc(c3ccccc3c1)OCCCc1c(C(=O)O)n(C)c3c-2c(Cl)ccc13` [AZD5991] + C[C@@H]1COCCN1C2=NC(=NC(=C2)C3(CC3)[S@](=N)(=O)C)C4=C5C=CNC5=NC=C4 [AZD6738] (first compound max 1 µM, 7x7, partner max 10 µM), the “combination Emax” value stood at 0.965 in assay [1], 0.748 in assay [2], 0.845 in assay [3] and 0.483 in assay [4].
For the compound `Cc1c2c(nn1C)CSCc1cc(n(C)n1)CSc1cc(c3ccccc3c1)OCCCc1c(C(=O)O)n(C)c3c-2c(Cl)ccc13` [AZD5991] + C[C@@H](Nc1cc(F)cc(F)c1)c1cc(C(=O)N(C)C)cc2c(=O)cc(N3CCOCC3)oc12 [AZD8186] (first compound max 1 µM, 7x7, partner max 3 µM), the “combination Emax” value turned out to be 0.367 in assay [1], 0.443 in assay [2], 0.24 in assay [3] and 0.319 in assay [4].
With `Cc1c2c(nn1C)CSCc1cc(n(C)n1)CSc1cc(c3ccccc3c1)OCCCc1c(C(=O)O)n(C)c3c-2c(Cl)ccc13` [AZD5991] + Cc1cc2ncnn2cc1Nc1ncc2c(n1)n(C1CCOCC1)c(=O)n2C [AZD7648] (first compound max 1 µM, 7x7, partner max 10 µM), the “combination Emax” value was 0.421 in assay [1], 0.371 in assay [2], 0.269 in assay [3] and 0.262 in assay [4].
On to `C[C@@H]1COCCN1c1cc(C2([S@](C)(=N)=O)CC2)nc(-c2ccnc3[nH]ccc23)n1` [AZD6738] + O=C(c1cc(Cc2n[nH]c(=O)c3ccccc23)ccc1F)N1CCN(C(=O)C2CC2)CC1 [Olaparib] (first compound max 10 µM, 7x7, partner max 10 µM), for which the “combination Emax” value worked out at 0.898 in assay [1], 0.781 in assay [2], 0.839 in assay [3] and 0.552 in assay [4].
For `NC1(C(=O)N[C@@H](CCO)c2ccc(Cl)cc2)CCN(c2ncnc3[nH]ccc23)CC1` [Capivasertib] + CC(=O)c1c(C)c2cnc(Nc3ccc(N4CCNCC4)cn3)nc2n(C2CCCC2)c1=O [Palbociclib] (first compound max 10 µM, 7x7, partner max 10 µM), the “combination Emax” value in assay [1] was 0.608; in assay [2], 0.607; in assay [3] it was 0.206; in assay [4], 0.4.
`NC1(C(=O)N[C@@H](CCO)c2ccc(Cl)cc2)CCN(c2ncnc3[nH]ccc23)CC1` [Capivasertib] + CC(C)n1c(=O)n(C)c2cnc3cc(F)c(-c4ccc(OCCCN5CCCCC5)nc4)cc3c21 [AZD1390] (first compound max 10 µM, 7x7, partner max 0.3 µM): the “combination Emax” value in assay [1] stood at 0.352; in assay [2] it was 0.435; in assay [3] it was 0.253; in assay [4], 0.239.
Regarding `NC1(C(=O)N[C@@H](CCO)c2ccc(Cl)cc2)CCN(c2ncnc3[nH]ccc23)CC1` [Capivasertib] + CCN(CCO)CCCOc1ccc2c(Nc3cc(CC(=O)Nc4cccc(F)c4)[nH]n3)ncnc2c1 [AZD2811] (first compound max 10 µM, 7x7, partner max 1 µM), the “combination Emax” value in assay [1] was determined as 0.568; in assay [2] it was 0.672; in assay [3], 0.322; in assay [4], 0.321.
Consider `NC1(C(=O)N[C@@H](CCO)c2ccc(Cl)cc2)CCN(c2ncnc3[nH]ccc23)CC1` [Capivasertib] + COc1nnc2ccc(N3CCC(c4ccc(OCCN5CCN(C)C(=O)[C@H]5C)cc4)CC3)nn12 [AZD5153] (first compound max 10 µM, 7x7, partner max 1 µM), for which the “combination Emax” value in assay [1] came out at 0.71; in assay [2], 0.848; in assay [3] it was 0.815; in assay [4], 0.649.
Take `NC1(C(=O)N[C@@H](CCO)c2ccc(Cl)cc2)CCN(c2ncnc3[nH]ccc23)CC1` [Capivasertib] + C[C@@H]1COCCN1C2=NC(=NC(=C2)C3(CC3)[S@](=N)(=O)C)C4=C5C=CNC5=NC=C4 [AZD6738] (first compound max 10 µM, 7x7, partner max 10 µM): the “combination Emax” value in assay [1] came to 0.938; in assay [2], 0.727; in assay [3], 0.74; in assay [4], 0.417.
In the case of `NC1(C(=O)N[C@@H](CCO)c2ccc(Cl)cc2)CCN(c2ncnc3[nH]ccc23)CC1` [Capivasertib] + Cn1cnc2c(F)c(Nc3ccc(Br)cc3Cl)c(C(=O)NOCCO)cc21 [Selumetinib] (first compound max 10 µM, 7x7, partner max 10 µM), the “combination Emax” value came to 0.437 in assay [1], 0.574 in assay [2], 0.34 in assay [3] and 0.41 in assay [4].
On to `COc1cccc2c1C(=O)c1c(O)c3c(c(O)c1C2=O)C[C@@](O)(C(=O)CO)C[C@@H]3O[C@H]1C[C@H](N)[C@H](O)[C@H](C)O1` [Doxorubicin] + Cc1cc2ncnn2cc1Nc1ncc2c(n1)n(C1CCOCC1)c(=O)n2C [AZD7648] (first compound max 1 µM, 7x7, partner max 10 µM), for which the “combination Emax” value is 0.952 in assay [1], 0.884 in assay [2], 0.727 in assay [3] and 0.871 in assay [4].
Consider `CS(=O)(=O)CCNCc1ccc(-c2ccc3ncnc(Nc4ccc(OCc5cccc(F)c5)c(Cl)c4)c3c2)o1` [Lapatinib] + C[C@@H](Oc1cc(-c2cnn(C3CCNCC3)c2)cnc1N)c1c(Cl)ccc(F)c1Cl [Crizotinib] (first compound max 10 µM, 7x7, partner max 10 µM), for which the “combination Emax” value in assay [1] came out at 0.966; in assay [2], 0.968; in assay [3] it was 0.931; in assay [4] it was 0.88.
Take `CC(=O)c1c(C)c2cnc(Nc3ccc(N4CCNCC4)cn3)nc2n(C2CCCC2)c1=O` [Palbociclib] + CC1(C)CCC(CN2CCN(c3ccc(C(=O)NS(=O)(=O)c4ccc(NCC5CCOCC5)c([N+](=O)[O-])c4)c(Oc4cnc5[nH]ccc5c4)c3)CC2)=C(c2ccc(Cl)cc2)C1 [Venetoclax] (first compound max 10 µM, 7x7, partner max 1 µM): the “combination Emax” value was 0.528 in assay [1], 0.57 in assay [2], 0.166 in assay [3] and 0.297 in assay [4].
In the case of `CC(=O)c1c(C)c2cnc(Nc3ccc(N4CCNCC4)cn3)nc2n(C2CCCC2)c1=O` [Palbociclib] + Cc1c2c(nn1C)CSCc1cc(n(C)n1)CSc1cc(c3ccccc3c1)OCCCc1c(C(=O)O)n(C)c3c-2c(Cl)ccc13 [AZD5991] (first compound max 10 µM, 7x7, partner max 1 µM), the “combination Emax” value in assay [1] came out at 0.491; in assay [2], 0.528; in assay [3], 0.241; in assay [4] it was 0.344.
`CC(=O)c1c(C)c2cnc(Nc3ccc(N4CCNCC4)cn3)nc2n(C2CCCC2)c1=O` [Palbociclib] + Cn1cnc2c(F)c(Nc3ccc(Br)cc3Cl)c(C(=O)NOCCO)cc21 [Selumetinib] (first compound max 10 µM, 7x7, partner max 10 µM): the “combination Emax” value in assay [1] came to 0.551; in assay [2], 0.579; in assay [3] it was 0.235; in assay [4], 0.329.
`COc1cccc(OCCCN)c1-c1cc(Nc2cnc(C#N)cn2)n[nH]1` [Prexasertib] + C=CCn1c(=O)c2cnc(Nc3ccc(N4CCN(C)CC4)cc3)nc2n1-c1cccc(C(C)(C)O)n1 [AZD1775] (first compound max 1 µM, partner max 1 µM): the “combination Emax” value is 0.966 in assay [1], 0.825 in assay [2], 0.986 in assay [3] and 0.539 in assay [4].
As to `COc1cccc(OCCCN)c1-c1cc(Nc2cnc(C#N)cn2)n[nH]1` [Prexasertib] + CCc1c2c(nc3ccc(O)cc13)-c1cc3c(c(=O)n1C2)COC(=O)[C@]3(O)CC [SN-38] (first compound max 1 µM, 7x7, partner max 0.3 µM), the “combination Emax” value in assay [1] came to 0.995; in assay [2] it was 0.796; in assay [3], 0.889; in assay [4] it was 0.698.
On to `COc1cccc(OCCCN)c1-c1cc(Nc2cnc(C#N)cn2)n[nH]1` [Prexasertib] + CN(C)CCCOc1ccc(-c2ccc3ncc4c(c3c2)n(C2CCOCC2)c(=O)n4C)cn1 [AZD0156] (first compound max 1 µM, 7x7, partner max 1 µM), for which the “combination Emax” value in assay [1] stood at 0.958; in assay [2], 0.759; in assay [3], 0.953; in assay [4] it was 0.392.
The like results for `COc1cccc(OCCCN)c1-c1cc(Nc2cnc(C#N)cn2)n[nH]1` [Prexasertib] + C[C@@H]1COCCN1C2=NC(=NC(=C2)C3(CC3)[S@](=N)(=O)C)C4=C5C=CNC5=NC=C4 [AZD6738] (first compound max 1 µM, 7x7, partner max 10 µM) were, in that order, 0.96, 0.723, 0.965 and 0.571.
In the case of `COc1cccc(OCCCN)c1-c1cc(Nc2cnc(C#N)cn2)n[nH]1` [Prexasertib] + Cc1cc2ncnn2cc1Nc1ncc2c(n1)n(C1CCOCC1)c(=O)n2C [AZD7648] (first compound max 1 µM, 7x7, partner max 10 µM), the “combination Emax” value came to 0.962 in assay [1], 0.774 in assay [2], 0.944 in assay [3] and 0.523 in assay [4].
Turning to `COc1cccc(OCCCN)c1-c1cc(Nc2cnc(C#N)cn2)n[nH]1` [Prexasertib] + O=C(c1cc(Cc2n[nH]c(=O)c3ccccc23)ccc1F)N1CCN(C(=O)C2CC2)CC1 [Olaparib] (first compound max 1 µM, 7x7, partner max 10 µM), the “combination Emax” value in assay [1] amounted to 0.96; in assay [2] it was 0.767; in assay [3], 0.956; in assay [4], 0.52.
Taken in the same sequence, the figures for `CCc1c2c(nc3ccc(O)cc13)-c1cc3c(c(=O)n1C2)COC(=O)[C@]3(O)CC` [SN-38] + CN(C)CCCOc1ccc(-c2ccc3ncc4c(c3c2)n(C2CCOCC2)c(=O)n4C)cn1 [AZD0156] (first compound max 0.3 µM, 7x7, partner max 1 µM) were 0.982, 0.803, 0.442 and 0.673.
Consider `CCc1c2c(nc3ccc(O)cc13)-c1cc3c(c(=O)n1C2)COC(=O)[C@]3(O)CC` [SN-38] + O=C(c1cc(Cc2n[nH]c(=O)c3ccccc23)ccc1F)N1CCN(C(=O)C2CC2)CC1 [Olaparib] (first compound max 0.3 µM, 7x7, partner max 10 µM), for which the “combination Emax” value in assay [1] is 0.99; in assay [2] it was 0.789; in assay [3], 0.455; in assay [4], 0.724.
As to `Cn1cnc2c(F)c(Nc3ccc(Br)cc3Cl)c(C(=O)NOCCO)cc21` [Selumetinib] + C=CCn1c(=O)c2cnc(Nc3ccc(N4CCN(C)CC4)cc3)nc2n1-c1cccc(C(C)(C)O)n1 [AZD1775] (first compound max 10 µM, partner max 1 µM), the “combination Emax” value turned out to be 0.883 in assay [1], 0.633 in assay [2], 0.696 in assay [3] and 0.482 in assay [4].
Consider `Cn1cnc2c(F)c(Nc3ccc(Br)cc3Cl)c(C(=O)NOCCO)cc21` [Selumetinib] + CC(C)n1c(=O)n(C)c2cnc3cc(F)c(-c4ccc(OCCCN5CCCCC5)nc4)cc3c21 [AZD1390] (first compound max 10 µM, 7x7, partner max 0.3 µM), for which the “combination Emax” value worked out at 0.159 in assay [1], 0.266 in assay [2], 0.184 in assay [3] and 0.246 in assay [4].
The like results for `Cn1cnc2c(F)c(Nc3ccc(Br)cc3Cl)c(C(=O)NOCCO)cc21` [Selumetinib] + CCN(CCO)CCCOc1ccc2c(Nc3cc(CC(=O)Nc4cccc(F)c4)[nH]n3)ncnc2c1 [AZD2811] (first compound max 10 µM, 7x7, partner max 1 µM) were, in that order, 0.391, 0.594, 0.303 and 0.238.
In the case of `Cn1cnc2c(F)c(Nc3ccc(Br)cc3Cl)c(C(=O)NOCCO)cc21` [Selumetinib] + C[C@@H]1COCCN1C2=NC(=NC(=C2)C3(CC3)[S@](=N)(=O)C)C4=C5C=CNC5=NC=C4 [AZD6738] (first compound max 10 µM, 7x7, partner max 10 µM), the “combination Emax” value was determined as 0.892 in assay [1], 0.593 in assay [2], 0.684 in assay [3] and 0.362 in assay [4].

These data come from the supplement of paper PMC11061612.
